Experimental data published in US5100907A, “Hydantoin esters” (Lonza, Inc., priority 1990, dated 1992).

How the values were obtained:
[1] = Total available formaldehyde (TF) and free formaldehyde (FF) levels of esters (I); assay type: physicochemical; conditions: for FF (free formaldehyde) / TF (total available formaldehyde): neat ester, Table 3
Excerpt: Thus, whether the formaldehyde content is chemically bonded to the hydantoin moiety or is free formaldehyde (FF) in solution, e.g., in water as formaldehyde or methylene glycol [CH2 (OH)2 ], it remains available for biocidal action. Due to this direct relation, the weight percent TF in a given preparation of the ester (I), e.g. a cosmetic formulation, can be predicted accurately, regardless of the level of dilution.

Staphylococcus aureus = assay: Antimicrobial study against Staphylococcus aureus (gram-positive bacteria); assay type: cell-based; conditions: methylolated C8/10 10,800 ppm, methylolated lauric 11,400 ppm, DMDMH 3,000 ppm, others 14,700 ppm
Protocol: The antimicrobial properties of typical esters (I) and (Ia) were tested by minimum inhibitory concentration (MIC) tests, along with certain known substances, against […] strains of organisms: a mold, Aspergillus niger; a gram-positive bacteria, Staphylococcus aureus; and two gram-negative bacteria, Escherichia coli and Pseudomonas aeruginosa. […] These tests were used to determine any effect on biocidal activity of the varying chain length of the ester.
The known substances, on which identical tests were also performed, included the biocide, dimethyloldimethylhydantoin or DMDMH (iv), and a series of three surfactants, i.e., the three common emulsifiers, sodium lauryl sulfate (SLS); ethylene glycol distearate (EGDS), in the form of the commercial product PEGOSPERSE 50 DS (Lonza Inc.); and polyoxyethylene 20 sorbitan monoleate (POE 20 SMO), in the form of the commercial product GLYCOSPERSE 0 20 (Lonza Inc.).
The tests entailed contaminating a preexisting micro-colony with a known quantity (ppm, concentration) of test material. Each colony was then examined periodically over a one week period. […] A test was deemed non-efficacious when there was no decrease in colony size. In an effort to avoid any possible solvent effect, the micro-study was conducted in a totally aqueous solvent system without use of any other solvent.

Staphylococcus species b = assay: Preservative challenge test against Staphylococcus species b; assay type: cell-based; conditions: end of 14 day period
Protocol: Microbiological challenge tests were also conducted with the lauric and oleic esters (I), representing molecules having C12 and C18 aliphatic fatty acid chain length moieties, respectively.
These preservative challenge tests were used to determine the biocidal performance of these two esters (I) in aqueous solution and dispersion formulations inoculated with a given one of two test organisms, previously isolated from a contaminated calcium carbonate (CaCO3) dispersion, i.e. gram-positive bacteria, designated Staphylococcus species a and Staphylococcus species b, as compared to three known biocides or preservatives, designated as DANTOGARD (trademark), Tektamer 38 (1,2-dibromo-2,4-dicyanobutane) and Nuodex PMA-18.
The solution formulation was represented by the inclusion of the test sample as preservative system in deionized water, and the dispersion formulation was represented by the inclusion of the test sample as preservative system in a CaCO3 aqueous dispersion (identified as Hydrocarb 60), the latter typifying a dispersed pigment medium, e.g. as used in a paint or other industrial dispersion or slurry. The antimicrobial activity of the test samples was evaluated at individually selective concentrations.
All these liquid samples were stored at room temperature until the start of the tests. The test organisms were maintained or nutrient agar at 4° C. and subcultured in nutrient broth (Difco), and a 24 hour culture incubated at 35° C. was used for the testing over a challenge test time period of 14 days.
The test formulations were prepared per a standardized procedure, by placing 20 ml aliquots of the stored sample into sterile test tubes, and then adding 0.1 ml of a standardized 10^6 suspension of a 24 hour culture in nutrient broth. Plate counts were taken immediately to determine the initial level of the microbial population, and the containers were incubated at 20°-25° C. Plate counts were retaken at 1, 3, 7 and 14 days, with the final reductions being calculated from the 14 days results.

[2] = Dispersion stability tests; assay type: physicochemical; conditions: for stability of dispersions in water: 0.5%, and even 5% active levels
Protocol: The dispersion stability tests were performed on the esters (I) to determine the extent each was able to disperse itself in an aqueous medium.
The dispersions were prepared by homogenizing a mixture of the test ester and water, after which repeated examination of the sample was effected for a period of 55 days. This test method is fully indicative of the dispersibility of these esters (I).
The dispersion tests were performed with the esters at 0.5% and 5.0% active levels in water, prepared by combining the test ester with distilled water, and homogenizing the mixture for one to three minutes, via a Kika-Werk Ultra-Turrax S D-45 homogenizer. The dispersions were poured into an eight ounce flint jar, capped, and periodically examined over a 55 day period.

[3] = HLB determination (weighted average method); assay type: physicochemical
Excerpt: Hydrophilic-Lipophilic Balance or HLB is a means of associating the hydrophilic and lipophilic characteristics between two surfactants. A "weighted average" method was used to determine the HLB of the esters (I), and by comparison of the precursor ester (Ia), in which two emulsifiers of known HLB values along with the test ester were incorporated in a mixture of mineral oil and water. Evaluation and HLB determination of each of a series of prepared emulsion samples were effected by visual inspection.
The HLB of the mixture "m" is calculated from the sum of the HLB contributions of each surfactant, "a", "b", "c", per Equation 2 which describes a system of oil, water, and three surfactants.
Given that [HLB]m, [HLB]a, and [HLB]b, are known, and the ideal amount of "a", "b", and "c" to prepare a perfect emulsion has been determined, then by rearrangement of Eq. 2, the HLB of "c" can be calculated by Equation 3.
To obtain the HLB of the test ester as surfactant "c", a series of formulations was prepared in which the known surfactant sorbitan monostearate (SMS) as "a" and the known surfactant POE 20 sorbitan monostearate (POE 20 SMS) as "b" were varied in amount (wt. %) relative to each other at a constant amount (1 wt. %) of "c", until an optimum emulsion was obtained. Different combinations of "a" and "b" were used to vary the HLB of "c", for emulsifying a 40:56 (wt. %) mixture of paraffin oil and distilled water (totaling 96 wt. %).
To prepare the emulsions, surfactants "a", "b", and "c", and the paraffin oil were combined in a 150 ml beaker and heated slowly with agitation to 70°-80° C. The value of "X" in each formulation was predetermined by rearranging Eq. 3 to solve for X, and then inserting into the equation various [HLB]c values for the test ester (i.e., 2, 3, 4, 5, 6 . . . ). The [HLB]c values chosen reflected a range that would likely contain the actual HLB of the test ester. Hot distilled water (70°-80° C.) was then slowly added with agitation. The total weight of all these reagents was 100 grams. The resulting emulsion was allowed to cool, with continued agitation, until the temperature dropped below 30° C.
A series of emulsions for each test was prepared, one at a time, and then examined as a set. Each sample within the series was evaluated and graded according to the quality of the emulsion by visual examination of droplet size.

[4] = 1% active concentration in water

| Calculated TF [1, 4] | Determined FF [1, 4] | Ratio FF/TF [1, 4] | TF ([1]; at a concentration of 1.0%) | FF (free formaldehyde) [1] | TF (total available formaldehyde) [1] | stability of dispersions in water [2] | Average HLB [3] | HLB Range [3] | Structure (SMILES) | Colony Count (Staphylococcus aureus; Day 0) | Colony Count (Staphylococcus aureus; Day 1) | Colony Count (Staphylococcus aureus; Day 2) | Colony Count (Staphylococcus aureus; Day 3) | Colony Count (Staphylococcus aureus; Day 7) | effectiveness as preservative (Staphylococcus species b; calcium carbonate aqueous dispersions) | effectiveness as preservative (Staphylococcus species b; water) | dispersion quality, decreasing order of rank [2] |
| --- | --- | --- | --- | --- | --- | --- | --- | --- | --- | --- | --- | --- | --- | --- | --- | --- | --- |
| 0.065 Wt. % | 0.0112 Wt. % | 0.172 | 0.4 wt. % | 0.2 Wt. % | 6.5 Wt. % | stable for weeks | 15.0 | 14-16 | CCCCCCCC/C=C\CCCCCCCC(=O)OCCN1C(=O)N(CO)C(=O)C1(C)C [Methylolated Oleic Ester, 2-(3-hydroxymethyl-5,5-dimethyl-1,3-diazacyclopentane-2,4-dion-1-yl)-ethylester of oleic acid] | TNC | 4,200 × 1,000 | < 0.01 × 1,000 | < 0.01 × 1,000 | < 0.01 × 1,000 | effective as a preservative in calcium carbonate aqueous dispersions | effective as preservatives in water | isostearate>oleate>cocoate>laurate>C8/10ester>>stearate>acetate |
|  |  |  |  | 0.2 Wt. % | 8.0 Wt. % | stable for weeks | 12.8 | 12-14 | CCCCCCCCCCCC(=O)OCCN1C(=O)N(CO)C(=O)C1(C)C [Methylolated Lauric Ester, 2-(3-hydroxymethyl-5,5-dimethyl-1,3-diazacyclopentane-2,4-dion-1-yl)-ethylester of lauric acid] | TNC | 4,000 × 1,000 | < 0.01 × 1,000 | < 0.01 × 1,000 | < 0.01 × 1,000 |  | effective as preservatives in water | isostearate>oleate>cocoate>laurate>C8/10ester>>stearate>acetate |
